According to ChEMBL document CHEMBL1136880, “Discovery of N-aryl-9-oxo-9H-fluorene-1-carboxamides as a new series of apoptosis inducers using a cell- and caspase-based high-throughput screening assay. 1. Structure-activity relationships of the carboxamide group” (Bioorg Med Chem Lett, 2009):
Converted amounts (≈) assume the structure as drawn. The source made the active and inactive calls. The calls are words filed in the database; no cut-off is given here.

Key:
T47D [1] = assay: Induction of apoptosis in human T47D cells after 48 hrs; format: functional, cell-based
HCT-116 [2] = assay: Induction of apoptosis in human HCT116 cells after 48 hrs; format: functional, cell-based; conditions: HCT-116, 48 h
SNU-398 [3] = assay: Induction of apoptosis in human SNU398 cells after 48 hrs; format: functional, cell-based; conditions: SNU-398, 48 h
HCT-116 [4] = assay: Cell cycle arrest in human HCT116 cells assessed as accumulation at S phase at 2 uM after 24 hrs by flow cytometry; format: functional
[5] = Solubility in buffer solution containing ethanol:Cremophor:D5W of 12.5:12.5:75; format: physicochemical
HCT-116 [6] = assay: Cell cycle arrest in human HCT116 cells assessed as accumulation at G1 phase at 2 uM after 24 hrs by flow cytometry; format: functional
HCT-116 [7] = assay: Cell cycle arrest in human HCT116 cells assessed as accumulation at G2/M phase at 2 uM after 24 hrs by flow cytometry; format: functional
[8] = Inhibition of tubulin polymerization by DAPI staining method
HCT-116 [9] = assay: Cell cycle arrest in human HCT116 cells assessed as accumulation at subG1 phase at 2 uM after 48 hrs by flow cytometry; format: functional
HCT-116 [10] = assay: Cell cycle arrest in human HCT116 cells assessed as accumulation at subG1 phase at 2 uM after 24 hrs by flow cytometry; format: functional
HCT-116 [11] = assay: Cell cycle arrest in human HCT116 cells assessed as accumulation at S phase at 2 uM after 48 hrs by flow cytometry; format: functional
HCT-116 [12] = assay: Cell cycle arrest in human HCT116 cells assessed as accumulation at G2/M phase at 2 uM after 48 hrs by flow cytometry; format: functional
HCT-116 [13] = assay: Growth inhibition of human HCT116 cells after 48 hrs; format: functional; conditions: HCT-116, 48 h
HCT-116 [14] = assay: Cell cycle arrest in human HCT116 cells assessed as accumulation at G1 phase at 2 uM after 48 hrs by flow cytometry; format: functional
SNU-398 [15] = assay: Growth inhibition of human SNU398 cells after 48 hrs; format: functional; conditions: SNU-398, 48 h
T47D [16] = assay: Growth inhibition of human T47D cells after 48 hrs; format: functional

Compound | EC50 (T47D [1]) | EC50 (HCT-116 [2]) | EC50 (SNU-398 [3]) | also measured
O=C(Nc1ccccc1CBr)c1cccc2c1C(=O)c1ccccc1-2 | 4.7 µM | 10.7 µM | 7.2 µM | –
Cc1ccncc1NC(=O)c1cccc2c1C(=O)c1ccccc1-2 | > 10 µM | > 10 µM | > 10 µM | –
O=C(Nc1ccccc1F)c1cccc2c1C(=O)c1ccccc1-2 | 1.8 µM | > 10 µM | > 10 µM | –
Cc1cccc(NC(=O)c2cccc3c2C(=O)c2ccccc2-3)c1 | > 10 µM | > 10 µM | > 10 µM | –
CN(C(=O)c1cccc2c1C(=O)c1ccccc1-2)c1ccccc1-n1cccn1 | > 10 µM | > 10 µM | > 10 µM | –
O=C(Nc1ccccc1OCF)c1cccc2c1C(=O)c1ccccc1-2 | 0.48 µM | 2.3 µM | 1.5 µM | –
CC1CCCCC1NC(=O)c1cccc2c1C(=O)c1ccccc1-2 (stereo not given) | > 10 µM | > 10 µM | > 10 µM | –
O=C(NCc1ccccc1Cl)c1cccc2c1C(=O)c1ccccc1-2 | > 10 µM | > 10 µM | > 10 µM | –
CN1CCN(Cc2ccccc2NC(=O)c2cccc3c2C(=O)c2ccccc2-3)CC1 | > 10 µM | > 10 µM | > 10 µM | –
Cc1ccccc1C(=O)Nc1cccc2c1C(=O)c1ccccc1-2 | 2.1 µM | 2.2 µM | 1.3 µM | –
O=C(Nc1ccccc1[N+](=O)[O-])c1cccc2c1C(=O)c1ccccc1-2 | 2.5 µM | 5.5 µM | 2.6 µM | –
O=C(Nc1ccccc1O)c1cccc2c1C(=O)c1ccccc1-2 | > 10 µM | > 10 µM | > 10 µM | –
O=C(Nc1cccnc1)c1cccc2c1C(=O)c1ccccc1-2 | > 10 µM | > 10 µM | > 10 µM | –
O=C(Nc1ccccc1-n1cccn1)c1cccc2c1C(=O)c1ccccc1-2 | 1.4 µM | 1.3 µM | 1.1 µM | Activity (HCT-116 [4]): Active; solubility [5]: 6100 µg/mL (≈ 16.7 mM); Activity (HCT-116 [6]): Active; Activity (HCT-116 [7]): Active; IC50 [8]: Not Active; Activity (HCT-116 [9]): Active; Activity (HCT-116 [10]): Active; Activity (HCT-116 [11]): Active; Activity (HCT-116 [12]): Active; GI50 (HCT-116 [13]): 1100 nM; Activity (HCT-116 [14]): Active; GI50 (SNU-398 [15]): 780 nM; GI50 (T47D [16]): 160 nM
COc1cc2c(c(OC)c1OC)-c1ccc(OC)c(=O)cc1[C@@H](NC(C)=O)CC2 [COLCHICINE] | – | – | – | IC50 ([8]; read-out: IC50): 500 nM
Nc1ccccc1NC(=O)c1cccc2c1C(=O)c1ccccc1-2 | > 10 µM | > 10 µM | > 10 µM | –
O=C(Nc1ccccc1)c1cccc2c1C(=O)c1ccccc1-2 | 4.4 µM | > 10 µM | > 10 µM | –
COC(=O)c1ccccc1NC(=O)c1cccc2c1C(=O)c1ccccc1-2 | 2.4 µM | 0.52 µM | 0.34 µM | GI50 (HCT-116 [13]): 480 nM; GI50 (SNU-398 [15]): 310 nM; GI50 (T47D [16]): 180 nM
N#Cc1ccccc1NC(=O)c1cccc2c1C(=O)c1ccccc1-2 | > 10 µM | > 10 µM | > 10 µM | –
O=C(Nc1ccccc1-n1ccnc1)c1cccc2c1C(=O)c1ccccc1-2 | > 10 µM | > 10 µM | > 10 µM | –
O=C(Nc1ccccc1N1CCCCC1)c1cccc2c1C(=O)c1ccccc1-2 | 2.8 µM | 2.6 µM | 2.1 µM | –

Compound | EC50 (T47D [1]) | EC50 (HCT-116 [2]) | EC50 (SNU-398 [3]) | also measured
O=C(Nc1nccs1)c1cccc2c1C(=O)c1ccccc1-2 | > 10 µM | > 10 µM | > 10 µM | –
O=C(Nc1ccccc1Br)c1cccc2c1C(=O)c1ccccc1-2 | 2.3 µM | 2.7 µM | 2.2 µM | –
COc1ccccc1CNC(=O)c1cccc2c1C(=O)c1ccccc1-2 | > 10 µM | > 10 µM | > 10 µM | –
CN(C)Cc1ccccc1NC(=O)c1cccc2c1C(=O)c1ccccc1-2 | 1.4 µM | 0.94 µM | 0.71 µM | –
COc1ccc(NC(=O)c2cccc3c2C(=O)c2ccccc2-3)cc1 | 3.7 µM | > 10 µM | > 10 µM | –
O=C(Nc1ccccc1Cl)c1cccc2c1C(=O)c1ccccc1-2 | 0.47 µM | 0.56 µM | 0.41 µM | GI50 (HCT-116 [13]): 540 nM; GI50 (SNU-398 [15]): 530 nM; GI50 (T47D [16]): 230 nM
O=C(Nc1ccccc1-n1cccc1)c1cccc2c1C(=O)c1ccccc1-2 | 5.9 µM | 6.3 µM | 5.5 µM | –
Cc1cccc(C)c1NC(=O)c1cccc2c1C(=O)c1ccccc1-2 | > 10 µM | > 10 µM | > 10 µM | –
Cc1cccnc1NC(=O)c1cccc2c1C(=O)c1ccccc1-2 | > 10 µM | > 10 µM | > 10 µM | –
[N-]=[N+]=Nc1ccccc1NC(=O)c1cccc2c1C(=O)c1ccccc1-2 | 3.5 µM | 3.6 µM | 4.4 µM | –
COc1ccccc1NC(=O)c1cccc2c1C(=O)c1ccccc1-2 | 0.62 µM | 7.5 µM | 4.9 µM | –
O=C(Nc1ccccc1N1CCOCC1)c1cccc2c1C(=O)c1ccccc1-2 | 5.3 µM | 5.2 µM | 3.9 µM | –
CCOc1ccccc1NC(=O)c1cccc2c1C(=O)c1ccccc1-2 | 2.9 µM | 1.6 µM | 0.96 µM | GI50 (HCT-116 [13]): 400 nM; GI50 (SNU-398 [15]): 270 nM; GI50 (T47D [16]): 450 nM
Cc1ccccc1NC(=O)c1cccc2c1C(=O)c1ccccc1-2 | 0.98 µM | 1.1 µM | 0.64 µM | Activity (HCT-116 [4]): 10%; Activity (HCT-116 [6]): 32%; Activity (HCT-116 [7]): 48%; IC50 [8]: Not Active; Activity (HCT-116 [9]): 41%; Activity (HCT-116 [10]): 8%; Activity (HCT-116 [11]): 11%; Activity (HCT-116 [12]): 16%; GI50 (HCT-116 [13]): 360 nM; Activity (HCT-116 [14]): 29%; GI50 (SNU-398 [15]): 300 nM; GI50 (T47D [16]): 180 nM
Cc1ccc(NC(=O)c2cccc3c2C(=O)c2ccccc2-3)cc1 | 4.6 µM | > 10 µM | > 10 µM | –
O=C(Nc1ccccc1-c1nnn[nH]1)c1cccc2c1C(=O)c1ccccc1-2 | > 10 µM | > 10 µM | > 10 µM | –
O=C(Nc1ccccn1)c1cccc2c1C(=O)c1ccccc1-2 | > 10 µM | > 10 µM | > 10 µM | –
CC[C@]1(O)C[C@@H]2CN(CCc3c([nH]c4ccccc34)[C@@](C(=O)OC)(c3cc4c(cc3OC)N(C)[C@H]3[C@@](O)(C(=O)OC)[C@H](OC(C)=O)[C@]5(CC)C=CCN6CC[C@]43[C@@H]65)C2)C1 [VINBLASTINE] | – | – | – | IC50 ([8]; read-out: IC50): 500 nM
CN(C)c1ccccc1NC(=O)c1cccc2c1C(=O)c1ccccc1-2 | 0.98 µM | 1.2 µM | 0.83 µM | solubility [5]: 6100 µg/mL (≈ 17.8 mM)
Cc1ccccc1N(C)C(=O)c1cccc2c1C(=O)c1ccccc1-2 | > 10 µM | > 10 µM | > 10 µM | –
O=C(Nc1ccccc1-c1ccccc1)c1cccc2c1C(=O)c1ccccc1-2 | 1.7 µM | 1.8 µM | 1.7 µM | GI50 (HCT-116 [13]): 580 nM; GI50 (SNU-398 [15]): 350 nM; GI50 (T47D [16]): 210 nM
